From paper PMC8623398, “Investigation of the Mechanisms of Cytotoxic Activity of 1,3-Disubstituted Thiourea Derivatives” (Pharmaceuticals, 2021)
Several values for one entry are separate records, joined by “and”; a condition that tells them apart may be missing. Equal entries are not always repeated. Each block holds one molecule with its values, some of them ahead of it.

Assays:
SW480 cells = assay: MTT assay, SW480; assay type: cell-based, human; details: 50% growth inhibition
Method: (§1) As a first step in assessing their cytotoxic properties, all thioureas of the series were assayed against four human carcinoma cell lines, such as SW480 (primary colon cancer), SW620 (metastatic colon cancer), PC3 (metastatic prostate cancer), and K-562 (chronic myelogenous leukemia), as well as against the normal cell line HaCaT (immortalized human keratinocytes). Table 1 lists the compound concentrations that produced 50% of growth inhibition (IC50, μM), generated by the MTT method, in comparison with two commonly used chemotherapeutic agents, doxorubicin and cisplatin.
(§2) The human primary (SW480), metastatic (SW620) colon cancer, metastatic prostate cancer (PC3), chronic myelogenous leukemia (K-562), and human immortal keratinocyte (HaCaT) cell lines were purchased from the American Type Culture Collection (ATCC, Rockville, MD, USA). The cells were cultured in medium according to protocols (MEM for SW480 and SW620, RPMI 1640 for PC3 and K-562, and DMEM for HaCaT cells), supplemented with 10% FBS, penicillin (100 U/mL) and streptomycin (100 μg/mL), and cultured in a 37 °C/5% CO2 humidified incubator. The cells were cultured until appropriate confluence was achieved (80–90%). Next, they were harvested by treatment with 0.25% trypsin (Gibco Life Technologies, Waltham, MA, USA) excluding the non-adherent K-562 cell line and used for studies.
(§3) Cells without the studied compounds in medium were used as a control.
(§4) The cell viability was assessed by determination of MTT salt [3-(4,5-dimethylthiazol-2-yl)-2,5-diphenyltetrazoliumbromide] conversion by mitochondrial dehydrogenase. The MTT assay was performed as previously described. Alternatively, non-adherent leukemic cells were centrifuged in a microplate centrifuge (400× g, 5 min) during the collection stages. Experiments were repeated three times. Cell viability was presented as a percent of MTT reduction in the treated cells versus the control cells. The number of viable cells cultured without the studied compounds was assumed as 100%. A decreased relative MTT level indicated decreased cell viability. Thiourea compounds with the highest cytotoxic potential assessed by MTT determination (with the lowest IC50) were chosen for subsequent assessments of cytotoxicity mechanisms.

PC3 cells = assay: MTT assay, PC3; assay type: cell-based; details: Homo sapiens, PC-3, 72 h, 50% growth inhibition
Method: as §1, §2, §3, §4

K-562 cells [1] = assay: MTT assay, K562; assay type: cell-based, human; details: 50% growth inhibition
Method: as §1, §2, §3, §4

HaCaT cells = assay: MTT assay, HaCaT normal cells; assay type: cell-based, human; details: Homo sapiens, HaCaT, 72 h
Method: as §1, §2, §3, §4

Trypan blue assay, HaCaT = assay type: cell-based, human; details: human, HaCaT cells, compound at IC50 concentration
Method: In order to estimate the tumor and normal cell population density and their viability after treatment with compounds 1–3, 8, and 9, the trypan blue dye exclusion assay was performed. The live cell number of all cancerous cells incubated for 72 h with the studied thioureas was considerably lower in comparison with the controls (Table 2; Figure S1A). The highest reduction in cell amount was denoted for both colon SW480 and SW620 cells treated with the dichlorophenyl derivative 2, and it accounted for 93%. […] Similarly, a noticeable decline in both colon cancer cell populations was observed after treatment with the ortho-substituted compound 8. The number of live cells equaled 12% and 18%, respectively, as compared to controls. This thiourea also led to a reduction of PC3 cells of 38%, and leukemia K-562 cell lines of 27%. The number of SW620 and PC3 cells decreased by 72% and 63% in the presence of para-substituted compound 9. However, the reducing influence of this thiourea on the number of other cancerous cells was at the level of 21–32%. […] A significant effect on the other studied pathological cells was also noticed and accounted for 32–46%. Furthermore, the derivative 3 reduced the amount of live cancer cells by 32–59%, of which its decreasing impact on colon cancer cells was the greatest.
The live cell count was assessed by the trypan blue exclusion dye assay using an automated cell counter (CountessTM Invitrogen, Waltham, MA, USA). Untreated cells were used as the control.

K-562 cells [2] = assay: Annexin V-FITC/PI flow cytometry, K-562; assay type: cell-based, human; details: K-562, 72 h, IC50 concentration
Method: (§5) To estimate the mechanism of anticancer activity of the selected compounds 1–3, 8, and 9, their effect on both early and late apoptosis was evaluated by flow cytometry analysis. […] Additionally, visible late apoptosis-inducing properties in these cell lines were denoted for the compound 9 (47% ± 3.0%), which was twice as strong towards the colon tumor cells mentioned above. The apoptotic properties of analogs 3 and 8 in K-562 cells varied from 30% ± 1.6% to 33% ± 2.3%. […] Whereas the apoptosis-generating influence of derivatives 2 and 3 on normal keratinocytes was higher (29% and 23%), their selectivity measured by MTT methods is favorable. The obtained results are in agreement with the IC50 values assigned to pathological cancer cell lines. The cells were cultured and harvested under the conditions described in Section 3.2.1. […] The effect of these compounds on the process of early and late apoptosis and necrosis was determined as described previously by dual staining with Annexin V:FITC and propidium iodide, according to the manufacturer’s protocol (Becton Dickinson). The cells that were Annexin V:FITC positive and PI negative were identified as early apoptotic, and Annexin V:FITC and PI positive as late apoptotic or necrotic.

[3] = Annexin V-FITC/PI flow cytometry, HaCaT; assay type: cell-based, human; parameters: viability at 72 h: concentration or dose not given beside the values; details: human, HaCaT cells (normal keratinocytes), representative dot plot, Figure 4E, read-out: LL quadrant, viable cells
Method: as §5

IL-6 level, HaCaT cells = assay: IL-6 level ELISA, HaCaT; assay type: cell-based, human; details: 72 h, compound at IC50 concentration
Method: Because of the low secretion of IL-6 by leukemic cells compared to solid tumors, and in addition to the lack of IL-6 receptors in K-562 cells, studies of the effect of derivatives 1–3, 8, and 9 on the inhibition of IL-6 release were carried out on primary and secondary solid tumor cells (SW480, SW620, and PC3). A remarkable inhibition of the IL-6 level was denoted for both colon cancer cell lines. Compound 2, identified as the strongest inhibitor, reduced the interleukin level by 54% (in SW480 cells) and 63% (SW620 cells). A significant effect was also observed in these cells for its structural isomer 3 (39% and 23% of inhibition, respectively). Additionally, compound 3 considerably affected the IL-6 level produced by PC3 cells, and reduced it by 33%. Similarly, the treatment with derivative 1 was effective for both colon cancer cells. In its presence, IL-6 release decreased by 28–36%, as compared to controls. For monosubstituted derivatives 8 and 9, the observed IL-6-reducing influence was weaker. They both inhibited IL-6 secretion in SW480 and SW620 cell lines by 25–32%. In contrast to compound 9, thiourea 8 additionally diminished the cytokine level in PC3 cells by 26%.
The IL-6 concentration in all studied cancer cells and normal HaCaT cell lines was measured by an ELISA kit (Diaclon SAS Besancon CEDEX, Besançon, France). […] IL-6 in cell culture supernatant was measured using the enzyme-linked immunosorbent assay in accordance with the manufacturer’s protocol.

IC50 (SW480 cells; 72 h): 12.7 ± 1.53 µM | IC50 (SW480 cells; Homo sapiens, SW480, 72 h): 12.7 to 15.6 µM | IC50 (PC3 cells): 53.6 ± 2.94 µM | IC50 (K-562 cells [1]; Homo sapiens, K562, 72 h): 6.8 ± 1.57 µM
SMILES: Fc1ccc(NC(=S)Nc2cccc(C(F)(F)F)c2)cc1Cl [Compound 1, 1-(3-chloro-4-fluorophenyl)-3-[3-(trifluoromethyl)phenyl]thiourea]
IC50 (HaCaT cells): 43.6 ± 4.22 µM | viability at 72 h (Trypan blue assay, HaCaT): 97 ± 1.33% | cells in late apoptosis (K-562 cells [2]): 74% ± 3.8% | viability at 72 h [3]: 78.2% | IL-6 Concentration (IL-6 level, HaCaT cells): 8.7 ± 0.03 pg/mL

IC50 (SW480 cells; Homo sapiens, SW480, 72 h): 38.1 ± 4.38 µM | IC50 (PC3 cells): 22.6 ± 1.25 µM | IC50 (K-562 cells [1]; 72 h): 10.2 ± 0.35 µM | IC50 (K-562 cells [1]; Homo sapiens, K562, 72 h): 10.2 to 12.9 µM
SMILES: FC(F)(F)c1cccc(NC(=S)Nc2ccc(Cl)cc2)c1 [Compound 9, 1-(4-chlorophenyl)-3-[3-(trifluoromethyl)phenyl]thiourea]
IC50 (HaCaT cells): 71.5 ± 3.08 µM | viability at 72 h (Trypan blue assay, HaCaT): 98 ± 1.5% | cells in late apoptosis (K-562 cells [2]): 47% ± 3.0% | viability at 72 h [3]: 79.5% | IL-6 Concentration (IL-6 level, HaCaT cells): 9.0 ± 0.01 pg/mL

Further lines, the molecule ahead of its results:

SMILES: FC(F)(F)c1cccc(NC(=S)Nc2ccc(Cl)c(Cl)c2)c1 [Compound 2, 1-(3,4-dichlorophenyl)-3-[3-(trifluoromethyl)phenyl]thiourea]
IC50 (SW480 cells; Homo sapiens, SW480, 72 h): 9 ± 1.42 µM | IC50 (PC3 cells): 31.7 ± 2.07 µM | IC50 (K-562 cells [1]; Homo sapiens, K562, 72 h): 6.3 ± 1.28 µM | IC50 (HaCaT cells): 24.7 ± 0.05 µM | viability at 72 h (Trypan blue assay, HaCaT): 84 ± 1.03% | cells in late apoptosis (K-562 cells [2]): 73% and 73% ± 2.0% | viability at 72 h [3]: 57.6% | IL-6 Concentration (IL-6 level, HaCaT cells): 9.1 ± 0.03 pg/mL

SMILES: FC(F)(F)c1ccc(NC(=S)Nc2cccc(C(F)(F)F)c2)cc1 [Compound 8, 1-[3-(trifluoromethyl)phenyl]-3-[4-(trifluoromethyl)phenyl]thiourea]
IC50 (SW480 cells; Homo sapiens, SW480, 72 h): 8.9 ± 1.14 µM | IC50 (PC3 cells): 6.9 ± 1.64 µM | IC50 (K-562 cells [1]; Homo sapiens, K562, 72 h): 54.8 ± 0.24 µM | IC50 (HaCaT cells): 41.3 ± 0.17 µM | viability at 72 h (Trypan blue assay, HaCaT): 98 ± 1.02% | viability at 72 h [3]: 70.1% | IL-6 Concentration (IL-6 level, HaCaT cells): 9.1 ± 0.06 pg/mL

SMILES: FC(F)(F)c1cccc(NC(S)=Nc2ccc(Cl)cc2Cl)c1 [Compound 3, 1-(2,4-dichlorophenyl)-3-[3-(trifluoromethyl)phenyl]thiourea]
IC50 (SW480 cells; Homo sapiens, SW480, 72 h): 30.1 ± 3.11 µM | IC50 (PC3 cells): 13.7 ± 7.04 µM | IC50 (K-562 cells [1]; Homo sapiens, K562, 72 h): 54.3 ± 1.86 µM | IC50 (HaCaT cells): 52.1 ± 0.95 µM | viability at 72 h (Trypan blue assay, HaCaT): 96 ± 3.01% | viability at 72 h [3]: 65.7% | IL-6 Concentration (IL-6 level, HaCaT cells): 8.9 ± 0.01 pg/mL
